The values that follow come from ChEMBL document CHEMBL1135600, “Novel tricyclic-alpha-alkyloxyphenylpropionic acids: dual PPARalpha/gamma agonists with hypolipidemic and antidiabetic activity” (J Med Chem, 2002).

Usually EC50 stands for the midpoint of the concentration-response curve. A low value points to greater potency. Broadly, the half-life is the time in which the quantity being followed falls by half. As a reminder, the AUC is concentration integrated over time. What is called ED50 is the dose at which the effect has come halfway, by size or by number of responders. What is called Cmax is the maximum level reached in the sampled fluid or tissue. Usually CL/F stands for clearance divided by bioavailability, as obtained after extravascular dosing. The term bioavailability denotes dose-corrected exposure relative to a reference, in per cent. Low readings indicate poor availability, high ones good availability.

Data set [1] deals with T1, Peroxisome proliferator-activated receptor alpha (Homo sapiens, UniProt Q07869).
T1 sequence (Q07869 whole entry): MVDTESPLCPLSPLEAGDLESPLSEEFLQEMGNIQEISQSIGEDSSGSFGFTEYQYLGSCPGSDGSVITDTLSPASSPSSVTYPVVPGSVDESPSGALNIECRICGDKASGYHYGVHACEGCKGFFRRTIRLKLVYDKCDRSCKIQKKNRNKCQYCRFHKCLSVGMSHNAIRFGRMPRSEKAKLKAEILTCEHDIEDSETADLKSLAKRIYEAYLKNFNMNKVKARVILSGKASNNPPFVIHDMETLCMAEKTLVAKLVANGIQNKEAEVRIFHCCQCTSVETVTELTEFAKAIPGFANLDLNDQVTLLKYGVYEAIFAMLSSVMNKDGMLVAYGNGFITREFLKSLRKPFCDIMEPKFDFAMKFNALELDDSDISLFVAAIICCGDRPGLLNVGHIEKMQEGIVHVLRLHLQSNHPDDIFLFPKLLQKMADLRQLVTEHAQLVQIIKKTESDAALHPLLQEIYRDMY
In words: In vitro transactivation using receptor transactivation assay against hPPAR alpha. In kind it is functional.

The target in data set [2] is T2, Peroxisome proliferator-activated receptor delta (Homo sapiens, UniProt Q03181).
T2 sequence (Q03181 whole entry): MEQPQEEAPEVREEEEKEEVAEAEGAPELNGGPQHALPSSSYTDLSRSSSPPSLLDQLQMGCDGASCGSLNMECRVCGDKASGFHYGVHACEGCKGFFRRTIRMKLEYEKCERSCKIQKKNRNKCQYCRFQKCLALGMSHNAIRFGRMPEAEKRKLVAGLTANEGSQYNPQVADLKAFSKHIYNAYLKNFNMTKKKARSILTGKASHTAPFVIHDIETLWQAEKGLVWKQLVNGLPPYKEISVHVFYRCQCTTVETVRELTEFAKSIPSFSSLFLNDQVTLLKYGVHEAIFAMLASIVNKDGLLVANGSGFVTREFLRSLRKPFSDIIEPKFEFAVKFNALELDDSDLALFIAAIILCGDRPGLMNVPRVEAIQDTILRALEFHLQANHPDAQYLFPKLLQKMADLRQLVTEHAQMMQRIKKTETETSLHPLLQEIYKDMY
In words: In vitro transcriptional activation of hPPAR delta. In kind it is functional.

A short description of data set [3]: Oral half life was reported in rat. In kind it is ADME, organism-based. To be noted: in vivo.
A short description of data set [4]: Area under plasma concentration time curve after oral administration at a dose 2.2 mg/kg in rat. In kind it is ADME, organism-based. More on the design: dose 2.2 mg/kg, route oral.
For data set [5], the species on record is Mus musculus. In words: Effective dose which produces the desired nonfasting blood glucose levels after 7 days in 50% of the treated mice. In kind it is functional. The following applies: 168 h.
A short description of data set [6]: Area under blood glucose time curve after OGTT on the 9th day of treatment. In kind it is ADME, tissue-based.
For data set [7], the species on record is Mus musculus. In words: Maximum achieved insulin reduction relative to vehicle treated control group. In kind it is functional.
Data set [8] is described as follows: Maximum plasma concentration after oral administration at a dose 2.2 mg/kg in rat. It is filed as ADME, organism-based. Details: dose 2.2 mg/kg, route oral.
A short description of data set [9]: Clearance after oral administration in rat. In kind it is ADME, organism-based. To be noted: in vivo.
The species entered for data set [10] is Mus musculus. In words: Maximum achieved triglycerides reduction relative to vehicle treated control group. In kind it is functional.
Data set [11] concerns the target T3, Peroxisome proliferator-activated receptor gamma (Homo sapiens, UniProt P37231).
T3 sequence (P37231 whole entry): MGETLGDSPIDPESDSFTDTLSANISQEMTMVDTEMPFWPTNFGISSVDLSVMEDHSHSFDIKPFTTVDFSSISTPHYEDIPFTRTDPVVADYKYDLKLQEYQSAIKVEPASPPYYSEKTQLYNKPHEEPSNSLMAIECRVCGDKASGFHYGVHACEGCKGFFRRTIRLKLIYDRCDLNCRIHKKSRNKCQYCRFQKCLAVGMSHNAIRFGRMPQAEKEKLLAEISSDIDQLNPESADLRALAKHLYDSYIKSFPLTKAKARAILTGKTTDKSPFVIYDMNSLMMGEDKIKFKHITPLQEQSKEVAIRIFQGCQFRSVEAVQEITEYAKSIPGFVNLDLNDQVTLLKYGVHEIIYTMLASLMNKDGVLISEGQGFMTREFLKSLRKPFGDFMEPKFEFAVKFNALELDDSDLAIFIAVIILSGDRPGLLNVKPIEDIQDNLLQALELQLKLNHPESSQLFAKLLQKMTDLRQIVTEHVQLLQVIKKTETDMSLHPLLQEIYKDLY
Description: In vitro transactivation using receptor transactivation assay against hPPAR gamma

The species entered for data set [12] is Mus musculus. Nature of the data set: Effective dose which produces the desired nonfasting triglyceride levels after 7 days in 50% of the treated male db/db mice. To be noted: 168 h. It is filed as functional.
Data set [13] is described as follows: Oral bioavailability in rat. In kind it is ADME, organism-based. The following applies: in vivo.
The nature of data set [14]: Volume of distribution during steady state in rat. In kind it is ADME, organism-based. To be noted: in vivo, read-out: Vss.
The species named for data set [15] is Mus musculus. In words: Effective dose which produces the desired nonfasting insuline levels after 7 days in 50% of the treated male db/db mice. It is filed as functional. To be noted: 168 h.

Take `CCCCC[C@H](O)/C=C/[C@@H]1[C@H]2C/C(=C\CCCC(=O)O)C[C@H]2C[C@H]1O` [CARBACYCLIN]: the EC50 was determined as 0.34 µM in data set [1] and 2.41 µM in data set [2].
For the compound `CCO[C@@H](Cc1ccc(OCCn2c3ccccc3c3ccncc32)cc1)C(=O)O`, the results for the EC50 in [1] and in data set [11] were 0.14 µM and 0.011 µM, respectively. For the same compound, the half-life in [3] came to 2.7 h. The compound further had an AUC in data set [4] of 1330 ng·h/mL. Further, the figures for the ED50 in the data set filed under Mus musculus [5], in the data set listed under Mus musculus [12] and in the data set listed under Mus musculus [15] were 0.33 mg/kg, 2.68 mg/kg and 7.74 mg/kg, respectively. In data set [6], the “AUC ED50” value came out at 3.32 mg/kg. Also, the results for the Max reduction in the data set listed under Mus musculus [7] and in the data set listed under Mus musculus [10] were 77% and 50%, respectively. Further, the highest concentration (Cmax) in data set [8] came to 527 ng/mL. The same compound yielded a CL/F in [9] of 12.7 mL/min/kg. The compound further came in with a bioavailability in data set [13] of 61%. Further, the Vd in data set [14] stood at 0.88 L/kg.
